# In US20250313555A1, “2-SUBSTITUTED THIAZOLE AND BENZOTHIAZOLE COMPOSITIONS AND METHODS AS DUX4 INHIBITORS” (ALTAY THERAPEUTICS, INC., priority 2022, published 2025):
# Key:
# Assay type in all cases: cell-based
# [1] = system: HEK; test: Cell cytotoxicity 50 assay (CC50), HEK cells
# Method in brief: (§1)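 Starting from a 10 mM drug solution, serial dilutions were made in medium and added onto HEK cells, which were then incubated 72 h at 37 °C. Viability was read as CellTiter-Glo luminescence after 5 min, and CC50 was obtained by curve fitting.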
# [2] = system: MBD3L2 RNA; test: RNA isolation and qPCR to determine MBD3L2 RNA levels in FSHD cells; details: 48 hrs
# Method in brief: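 FSHD cells were treated one day after seeding with a DUX4 inhibitor (11 μM or 3.6 μM) for 48 h. Total RNA was DNase-treated and reverse-transcribed with random hexamers and M-MLV. MBD3L2 was quantified by SYBR Green qPCR in triplicate against EEF1A as the reference gene.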
# [3] = system: MB200 cells; test: Cell cytotoxicity 50 assay (CC50), MB200 cells, cell titer glo; details: 72 h
# Method in brief: (§2)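 MB200 cells were seeded at 10 k/well in F10 medium with bFGF, 15% FBS and dexamethasone. Cells were exposed to serially diluted compound (from 10 mM stock) in triplicate for 72 h at 37 °C. Viability was read by CellTiter-Glo luminescence and CC50 was fitted.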
# [4] = Cell cytotoxicity 50 assay (CC50), HEK cells; details: human
# Method in brief: as §1
# [5] = target: T1, DUX4 (Homo sapiens, UniProt Q9UBX2); test: DUX4 EC50 luciferase reporter protocol in transfected HEK293 cells; details: 6 hr
# T1 construct: expressed in transfected cells; host or cells: HEK293
# T1 sequence (Q9UBX2 whole entry): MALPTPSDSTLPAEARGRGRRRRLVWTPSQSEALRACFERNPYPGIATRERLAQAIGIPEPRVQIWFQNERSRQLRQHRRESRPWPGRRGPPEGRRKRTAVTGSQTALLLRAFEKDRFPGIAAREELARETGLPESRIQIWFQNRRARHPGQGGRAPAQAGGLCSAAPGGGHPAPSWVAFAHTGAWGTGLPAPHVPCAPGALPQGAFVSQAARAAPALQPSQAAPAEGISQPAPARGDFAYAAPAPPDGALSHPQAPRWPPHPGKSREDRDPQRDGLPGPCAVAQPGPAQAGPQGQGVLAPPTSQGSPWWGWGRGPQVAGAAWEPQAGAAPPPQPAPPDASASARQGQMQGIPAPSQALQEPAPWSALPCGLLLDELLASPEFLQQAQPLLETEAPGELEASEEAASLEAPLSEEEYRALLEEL
# Excerpt: EC50 Protocol This example provides a representative protocol for a single well of a 96-well plate. It can be scaled up as necessary for treatment of multiple wells. For negative controls, a well containing reporter DNA, Renilla DNA, and turbofect (without expression vector) were used. For positive controls, wells containing cells that were not treated with any inhibitor were used. They were transfected with the complete DNA lipid complex as set forth below. The DNA-lipid complex for one well of the 96-well plate is prepared by adding to a tube 100 ng of the transfection factor (TF) expression vector, 100 ng of TF reporter DNA, 10 ng of Renilla reporter DNA, […] Turbofect transfection reagent, and […] of the medium without any serum or penicillin/streptomycin. The combination was mixed by gentle flicking of the tube, and the mixture was pipetted into a well of a 96-well plate. The plate was then gently tapped to spread the combination evenly on the bottom of the well. The well was incubated for 30 min. HEK293 cells were grown until 80% confluent in DMEM supplemented with 10% fetal bovine serum, 1% penicillin streptomycin, and 1% amphotericin B. The adherent cells growing on a 10 cm plate were trypsinized with 1 mL of prewarmed trypsin. Once the cells detached from the plate, 10 mL of medium was added, and the cells were strained through a […] cell strainer. The cells were counted using a mixture of 10 mL cell suspension with 10 mL of trypan blue. Once the total number of cells are counted, a dilution of 150 k/mL was prepared. After incubation of the transfection complex was complete, […] of HEK293s (23.25 k total cells) were gently dispensed on top of the wells containing the 25 mL transfection complex, producing a total volume of about 180 mL. The mixture was then incubated for 24 h. To treat cells with each inhibitor, the inhibitors were prepared in the same growth medium. In a deep well block, the regular medium with serum was added to well 1 (135 mL) and to wells 2 through 10 (100 mL). To the first well was added 15 mL of 10 nM inhibitor. The final concentration of the drug in well 1 was 1 nM. The wells were pipeted up and down, and 50 mL was transferred from well 1 to well 2 (1/3 dilution). The well was mixed, and the seriation dilution was repeated with the remaining wells. Once the serial dilution was complete, using a multichannel pipet, 20 mL of each inhibitor were transferred to designated wells in a 96-well plate. […] Before the assay, a sufficient amount of 1× passive lysis buffer was prepared. The luciferase substrate buffer (Promega) was thawed completely and then mixed with the lyophilized luciferase substrate. The stop buffer (Promega) was also completely thawed. (1) Cell lysis: After treatment of the cells was complete, all the cell media is removed by flipping the 96-well plate over and tapping it dry on a dry paper towel. Immediately afterwards, the 1× passive lysis buffer (25 μL) was added. The plates were then placed on a rocker for 15 minutes at medium speed. (2)Measuring luciferase signal: The luciferase substrate solution for all wells was placed in a solution basin. The luciferase substrate solution was then added to every well (100 μL/well) using a multichannel pipette. The total luminescence was then read immediately using a plate reader. (3)Measuring Renilla signal: The “complete stop solution” was prepared in a solution basin by mixing the buffer with the 50× stop solution substrate (Promega) to make the final 1× solution. The complete stop solution was added to each well (50 μL/well) using a multichannel pipette. The total luminescence was then read immediately using a plate reader. Using a spreadsheet (e.g., Excel), the luciferase signal was divided by the renilla signal to get a relative luciferase unit.
# [6] = Cell cytotoxicity 50 assay (CC50), MB200 cells, cell titer glo; details: human
# Method in brief: as §2
SMILES,EC50 [5] [µM],CC50 [1] [µM],qPCR MBD3L2 Inhib at 11 µM [2],CC50 [3] [µM],CC50 at 72 h [4] [µM],CC50 at 72 h [6] [µM]
O=C(CCC1CCC(=O)N1)Nc1ccc(-c2nc3ccccc3s2)cc1 (stereo not shown) [Compound 26],–,> 10,YES,1 to 10,–,–
O=C(CCCN1C(=O)CCC1=O)N[C@@H]1CC[C@H](c2nc3ccccc3s2)C1 [Compound 159],–,–,–,> 10,–,–
O=C(CCN1C(=O)CCC1=O)Nc1ccc(C(=O)c2nc3ccccc3s2)cc1 [Compound 69],> 10,–,–,–,> 10,1 to 10
O=C(CCN1C(=O)CCC1=O)Nc1ccc(-c2ccc3ncsc3c2)cc1 [Compound 43],> 10,–,–,–,> 10,> 10
CC(=O)NC1CCC(C(=O)NC2CCC(c3nc4ccccc4s3)C2)C1 (stereo not shown) [Compound 135],> 10,–,–,–,> 10,> 10
CC(=O)NCCCN(C)C(=O)[C@@H]1CC[C@H](c2nc3ccccc3s2)C1 [Compound 153],> 10,–,–,–,> 10,> 10
O=C(CCCN1C(=O)CCC1=O)N[C@@H]1CC[C@H](c2nc3ccccc3s2)C1 [Compound 127],> 10,–,–,–,> 10,> 10
CC(=O)NCCCN(C)C(=O)[C@H]1CC[C@H](c2nc3ccccc3s2)C1 [Compound 154],> 10,–,–,–,> 10,> 10
O=C1CCC(CCC(=O)N[C@H]2CC[C@@H](c3nc4ccccc4s3)CC2)N1 (stereo partly shown) [Compound 186],> 10,–,–,–,> 10,> 10
CN(C(=O)CCCN1C(=O)CCC1=O)C1CCC(c2nc3ccccc3s2)C1 (stereo not shown) [Compound 147],> 10,–,–,–,> 10,> 10
CC(=O)NCCCC(=O)Nc1ccc(Cc2nc3ccccc3s2)cc1 [Compound 80],> 10,–,–,–,> 10,> 10
O=C(CCCCN1C(=O)CCC1=O)N[C@H]1CC[C@H](c2nc3ccccc3s2)CC1 [Compound 152],> 10,–,–,–,> 10,> 10
O=C(CCCN1C(=O)CCC1=O)Nc1ccc(Cc2nc3ccccc3s2)cc1 [Compound 148],> 10,–,–,–,> 10,> 10
CC(=O)NCCCC(=O)N[C@H]1CCC[C@H]1c1nc2ccccc2s1 [Compound 136],> 10,–,–,–,> 10,> 10
CC(=O)NCCCNC(=O)[C@H]1CC[C@H](c2nc3ccccc3s2)C1 [Compound 166],> 10,–,–,–,> 10,> 10
CC(=O)NCCCC(=O)N[C@@H]1CCC[C@H]1c1nc2ccccc2s1 [Compound 137],> 10,–,–,–,> 10,> 10
O=C1CCC(CCC(=O)N[C@H]2CC[C@H](c3nc4ccccc4s3)CC2)N1 (stereo partly shown) [Compound 187],> 10,–,–,–,> 10,> 10
CC(=O)NCCCCC(=O)NC1CCC(c2nc3ccccc3s2)CC1 (stereo not shown) [Compound 139],> 10,–,–,–,> 10,> 10
O=C(CCC(=O)c1cccs1)Nc1ccc(-c2nc3ccccc3s2)cc1 [Compound 25],> 10,–,–,–,> 10,> 10
CC(=O)NCCCC(=O)N(C)C1CCC(c2nc3ccccc3s2)C1 (stereo not shown) [Compound 146],> 10,–,–,–,> 10,> 10
CC(=O)NC1CCC(C(=O)N[C@H]2CC[C@@H](c3nc4ccccc4s3)CC2)C1 (stereo partly shown) [Compound 133],> 10,–,–,–,> 10,> 10

# The next lines start with results.
EC50 [5] [µM],SMILES,CC50 [1] [µM],qPCR MBD3L2 Inhib at 11 µM [2],CC50 [3] [µM],CC50 at 72 h [4] [µM],CC50 at 72 h [6] [µM]
> 10,CC(=O)NCCCNC(=O)c1cc(F)cc(-c2nc3cc(F)ccc3s2)c1 [Compound 180],–,–,–,> 10,> 10
> 10,CC(=O)NCCCNC(=O)[C@@H]1CC[C@H](c2nc3ccccc3s2)C1 [Compound 165],–,–,–,> 10,> 10
> 10,O=C(CCCN1C(=O)CCC1=O)N[C@H]1C[C@H](c2nc3ccccc3s2)C1 [Compound 98],–,–,–,> 10,> 10
> 10,O=C(CCCN1C(=O)CCC1=O)N[C@H]1CC[C@@H](c2nc3ccccc3s2)C1 [Compound 160],–,–,–,> 10,> 10
> 10,O=C(CCCN1CCCC1=O)NC1COCC1c1nc2ccccc2s1 (stereo not shown) [Compound 122],–,–,–,> 10,> 10
> 10,O=C(CCCCN1C(=O)CCC1=O)NC1CCC(c2nc3ccccc3s2)CC1 (stereo not shown) [Compound 143],–,–,–,> 10,> 10
> 10,O=C(CCCN1C(=O)CCC1=O)N[C@H]1CC[C@H](c2nc3ccccc3s2)C1 [Compound 128],–,–,–,> 10,> 10
> 10,O=C1CCC(=O)N1[C@H]1C[C@@H](C(=O)Nc2ccc(-c3nc4ccccc4s3)cc2)C1 [Compound 95],–,–,–,> 10,> 10
> 10,O=C(NCCCN1C(=O)CCC1=O)c1ccc(Cc2nc3ccccc3s2)cc1 [Compound 150],–,–,–,> 10,> 10
> 10,CC(=O)NCCCC(=O)Nc1ncc(-c2nc3ccccc3s2)o1 [Compound 121],–,–,–,> 10,> 10
> 10,CC(=O)NCCCC(=O)Nc1coc(-c2nccs2)c1 [Compound 79],–,–,–,> 10,> 10
> 10,O=C(CCCN1CCCC1=O)NC1CCCCC1c1nc2ccccc2s1 (stereo not shown) [Compound 123],–,–,–,> 10,> 10
> 10,CC(=O)NCCCC(=O)Nc1cc(F)cc(-c2nc3cc(F)ccc3s2)c1 [Compound 181],–,–,–,> 10,> 10
